Active and inactive are the calls of the source.
Assays:
[1] = NIH3T3 cell viability loss – ATP luminescence, mouse fibroblasts, counter-screen, dose response (AID 2010); assay type: functional, cell-based;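 note: cells exposed to compound for about 90 hours before reading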
[2] = Trypanosoma cruzi growth suppression in host cells – NIH3T3 host cells, beta-gal luminescence, confirmation (AID 2044); assay type: functional, cell-based;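 note: intracellular parasites grown in NIH/3T3 mouse fibroblasts as host cells; luminescent beta-galactosidase reporter signal from transgenic T. cruzi replicating inside host cells; inhibitors lower the luminescence signal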
Streptococcus = assay: GAS UMAA2166 growth inhibition – luminescence, BacTiterGlo, counter-screen for streptokinase expression inhibitor project, dose response (AID 1915); assay type: functional, organism-based;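 note: potency for reduction of bacterial viability or growth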
Melanocortin receptor 4 = Melanocortin receptor 4 (Homo sapiens, UniProt P32245); assay type: functional, cell-based;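 note: Cell-based assay with luminescence read-out, confirmatory dose-response testing for agonist activity of biased ligands at MC4R; human U2OS cells with tagged receptor and beta-arrestin; potency of agonists that increase receptor coupling to beta-arrestin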
Chain of Melanocortin receptor 4 (P32245 whole entry): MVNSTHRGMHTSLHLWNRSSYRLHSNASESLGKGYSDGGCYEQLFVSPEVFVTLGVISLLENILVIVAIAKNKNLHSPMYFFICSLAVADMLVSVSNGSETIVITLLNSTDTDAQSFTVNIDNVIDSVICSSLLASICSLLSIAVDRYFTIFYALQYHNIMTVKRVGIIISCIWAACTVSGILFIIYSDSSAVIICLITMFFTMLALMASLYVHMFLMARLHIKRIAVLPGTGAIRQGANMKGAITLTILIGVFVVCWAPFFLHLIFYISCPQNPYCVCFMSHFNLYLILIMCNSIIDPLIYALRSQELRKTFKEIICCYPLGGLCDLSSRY

[3] = tested on: Streptococcus sp. 'group A'; assay: Streptococcus pyogenes SK(-)GAS viability under kanamycin – luminescence, BacTiterGlo, confirmation, counter-screen for streptokinase expression inhibitor project, dose response (AID 1900); assay type: functional, organism-based
[4] = molecular target: T1, Polyadenylate-binding protein 1 (Homo sapiens, UniProt P11940); assay: MLLE domain peptide-binding blockers, IC50 – biochemical, fluorescence polarization, FITC-PAM2 peptide, dose response (AID 602259); assay type: functional; conditions: read-out: IC50_Mean
T1 sequence (P11940 whole entry, the tested form may be a part): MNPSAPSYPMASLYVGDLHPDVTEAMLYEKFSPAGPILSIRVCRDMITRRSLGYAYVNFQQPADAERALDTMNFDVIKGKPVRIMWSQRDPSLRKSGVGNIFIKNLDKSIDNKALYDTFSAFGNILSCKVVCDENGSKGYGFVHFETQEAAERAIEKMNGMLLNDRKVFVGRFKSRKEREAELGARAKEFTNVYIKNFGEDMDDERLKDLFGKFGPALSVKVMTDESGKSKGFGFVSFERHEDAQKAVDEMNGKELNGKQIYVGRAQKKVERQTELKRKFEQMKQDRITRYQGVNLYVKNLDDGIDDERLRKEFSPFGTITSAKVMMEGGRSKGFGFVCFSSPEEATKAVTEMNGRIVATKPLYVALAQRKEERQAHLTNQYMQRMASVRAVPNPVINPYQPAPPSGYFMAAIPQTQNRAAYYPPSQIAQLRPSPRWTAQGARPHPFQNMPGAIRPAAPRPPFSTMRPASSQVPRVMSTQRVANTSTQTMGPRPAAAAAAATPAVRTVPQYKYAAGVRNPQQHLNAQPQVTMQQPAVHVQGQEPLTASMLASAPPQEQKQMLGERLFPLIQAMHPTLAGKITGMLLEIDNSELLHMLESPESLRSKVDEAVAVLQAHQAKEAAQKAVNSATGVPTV

[5] = molecular target: T2, Sentrin-specific protease 6 (Homo sapiens, UniProt Q9GZR1); assay: SAR Analysis of small molecule inhibitors of Sentrin-specific protease 6 (SENP6) using a Luminescent assay. [Related pubchem assays (depositor defined):AID2582, AID2599]; assay type: functional
T2 sequence (Q9GZR1 whole entry): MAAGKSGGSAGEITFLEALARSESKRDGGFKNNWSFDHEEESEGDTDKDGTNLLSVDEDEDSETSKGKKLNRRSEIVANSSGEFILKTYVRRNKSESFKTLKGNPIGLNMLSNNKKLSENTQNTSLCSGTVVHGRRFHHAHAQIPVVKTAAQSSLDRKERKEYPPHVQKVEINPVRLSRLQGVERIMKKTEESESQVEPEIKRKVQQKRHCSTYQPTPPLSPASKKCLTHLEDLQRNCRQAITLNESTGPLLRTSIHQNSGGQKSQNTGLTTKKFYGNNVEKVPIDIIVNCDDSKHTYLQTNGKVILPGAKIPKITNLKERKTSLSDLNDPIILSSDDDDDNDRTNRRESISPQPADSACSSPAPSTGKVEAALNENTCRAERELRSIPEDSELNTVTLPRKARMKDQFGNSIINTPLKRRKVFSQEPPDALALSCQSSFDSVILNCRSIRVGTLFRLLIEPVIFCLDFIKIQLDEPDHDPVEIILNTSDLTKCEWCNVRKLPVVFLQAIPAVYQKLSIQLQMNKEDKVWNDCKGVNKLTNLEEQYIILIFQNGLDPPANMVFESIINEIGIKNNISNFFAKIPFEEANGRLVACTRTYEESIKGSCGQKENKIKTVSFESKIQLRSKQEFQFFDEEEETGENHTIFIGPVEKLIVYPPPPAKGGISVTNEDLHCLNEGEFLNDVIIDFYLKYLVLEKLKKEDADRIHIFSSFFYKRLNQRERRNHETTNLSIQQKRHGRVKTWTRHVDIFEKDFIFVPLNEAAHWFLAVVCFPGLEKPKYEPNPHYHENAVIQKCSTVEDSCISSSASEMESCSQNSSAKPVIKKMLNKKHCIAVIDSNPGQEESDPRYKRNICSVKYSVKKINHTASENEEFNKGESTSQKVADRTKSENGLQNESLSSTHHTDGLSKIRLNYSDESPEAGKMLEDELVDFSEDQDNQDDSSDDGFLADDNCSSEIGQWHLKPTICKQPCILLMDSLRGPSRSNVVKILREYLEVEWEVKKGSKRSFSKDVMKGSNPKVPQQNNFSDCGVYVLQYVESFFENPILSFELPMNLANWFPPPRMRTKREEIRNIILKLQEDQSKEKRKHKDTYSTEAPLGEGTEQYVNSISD

[6] = molecular target: T1, Polyadenylate-binding protein 1; assay: MLLE binding blockers, Cy5 peptide tracer – biochemical, fluorescence polarization, Cy5-PAM2 peptide, secondary, miRNA deadenylation inhibitor project, dose response (AID 602260); assay type: functional; conditions: read-out: IC50_Mean
[7] = molecular target: Female germline-specific tumor suppressor gld-1 (Caenorhabditis elegans, UniProt Q17339); assay: blockers of GLD-1/TGE RNA complex formation – biochemical, fluorescence polarization, C. elegans, dose response (AID 2802);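 note: fluorescence polarization of labeled TGE RNA bound by purified gld-1 protein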
Chain of Female germline-specific tumor suppressor gld-1 (Q17339 whole entry): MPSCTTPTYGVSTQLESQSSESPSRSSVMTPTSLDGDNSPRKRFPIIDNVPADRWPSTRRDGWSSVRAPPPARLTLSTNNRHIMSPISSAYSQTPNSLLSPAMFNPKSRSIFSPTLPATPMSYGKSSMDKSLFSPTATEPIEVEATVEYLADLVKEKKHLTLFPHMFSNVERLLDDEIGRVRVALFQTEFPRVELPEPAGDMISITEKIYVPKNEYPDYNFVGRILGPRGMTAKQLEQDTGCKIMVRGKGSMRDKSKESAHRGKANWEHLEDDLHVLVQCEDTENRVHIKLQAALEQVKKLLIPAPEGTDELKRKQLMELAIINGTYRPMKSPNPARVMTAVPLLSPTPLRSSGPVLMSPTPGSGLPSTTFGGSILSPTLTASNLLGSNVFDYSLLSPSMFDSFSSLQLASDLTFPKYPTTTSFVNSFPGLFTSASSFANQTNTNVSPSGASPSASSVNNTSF

[8] = molecular target: Serine/threonine-protein phosphatase PP1-alpha catalytic subunit (Homo sapiens, UniProt P62136); assay: inhibition of protein phosphatase 1 activity – biochemical, fluorescence, dose response (AID 2394)
Chain of Serine/threonine-protein phosphatase PP1-alpha catalytic subunit (P62136 whole entry): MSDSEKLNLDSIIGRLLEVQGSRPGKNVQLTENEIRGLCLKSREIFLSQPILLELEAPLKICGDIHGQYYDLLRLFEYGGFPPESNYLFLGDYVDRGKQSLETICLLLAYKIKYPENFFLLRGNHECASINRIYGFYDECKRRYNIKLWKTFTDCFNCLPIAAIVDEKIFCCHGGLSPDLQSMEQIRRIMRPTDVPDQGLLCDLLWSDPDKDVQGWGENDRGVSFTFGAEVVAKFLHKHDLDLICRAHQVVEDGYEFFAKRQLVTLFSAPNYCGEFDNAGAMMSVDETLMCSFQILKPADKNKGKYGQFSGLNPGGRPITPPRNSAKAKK

[9] = molecular target: Serine/threonine-protein phosphatase (Homo sapiens, UniProt Q9BPW0); assay: inhibition of protein phosphatase 5 activity – biochemical, fluorescence, dose response (AID 2395)
Chain of Serine/threonine-protein phosphatase (Q9BPW0 whole entry): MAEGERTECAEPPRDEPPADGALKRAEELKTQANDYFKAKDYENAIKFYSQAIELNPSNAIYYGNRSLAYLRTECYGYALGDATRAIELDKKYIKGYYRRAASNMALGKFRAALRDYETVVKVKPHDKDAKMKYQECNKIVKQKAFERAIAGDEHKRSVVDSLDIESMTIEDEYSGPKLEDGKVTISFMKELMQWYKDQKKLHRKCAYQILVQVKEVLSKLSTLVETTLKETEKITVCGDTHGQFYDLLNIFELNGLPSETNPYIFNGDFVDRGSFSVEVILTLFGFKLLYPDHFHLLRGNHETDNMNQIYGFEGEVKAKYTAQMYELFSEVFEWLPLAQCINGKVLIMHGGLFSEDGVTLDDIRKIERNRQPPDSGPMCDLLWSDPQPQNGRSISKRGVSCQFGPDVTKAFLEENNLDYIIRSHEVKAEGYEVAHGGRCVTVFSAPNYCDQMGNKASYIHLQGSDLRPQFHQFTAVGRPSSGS

Protein Rev = Protein Rev (Human immunodeficiency virus type 1 group M subtype B (isolate HXB2)(HIV-1), UniProt P04618); assay: blockers of HIV Rev/RRE RNA complex – biochemical, fluorescence polarization, HIV-1, dose response (AID 434976); design: species or system Human immunodeficiency virus 1
Chain of Protein Rev (P04618 whole entry): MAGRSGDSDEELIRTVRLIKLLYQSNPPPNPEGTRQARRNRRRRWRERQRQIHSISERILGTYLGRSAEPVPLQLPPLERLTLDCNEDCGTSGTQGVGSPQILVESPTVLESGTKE

[10] = molecular target: T3, Mitochondrial peptide methionine sulfoxide reductase (Bos taurus, UniProt P54149); assay type: functional;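 note: absorbance read-out, biochemical high-throughput dose-response screen for MsrA inhibitors, confirmatory; recombinant bovine MsrA coupled to E. coli TrxB with NADPH and selenocystamine; potency is for inhibitors of MsrA activity on DMSO substrate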
T3 sequence (P54149 whole entry): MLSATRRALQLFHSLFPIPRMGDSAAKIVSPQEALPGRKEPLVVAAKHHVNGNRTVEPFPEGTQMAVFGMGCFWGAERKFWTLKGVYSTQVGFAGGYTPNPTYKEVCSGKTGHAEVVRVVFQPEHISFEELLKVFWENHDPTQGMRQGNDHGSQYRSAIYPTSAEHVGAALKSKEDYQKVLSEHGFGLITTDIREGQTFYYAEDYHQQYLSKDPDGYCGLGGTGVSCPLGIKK

INS1 = assay: INS-1E survival protection against cytokine death – cell-based, luminescence, retest, dose response (AID 449756); assay type: functional; conditions: Rattus norvegicus;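 note: cell death triggered by IL-1 beta plus TNF-alpha plus IFN-gamma mixture; protective hits raise ATP signal compared with cytokine alone wells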
BJ = assay: cells; assay type: functional, cell-based; conditions: Homo sapiens
[11] = HEK-293T viability loss after treatment – luminescence, T-cell screen hits, cytotoxicity control for TCR NF-kB inhibitor project, dose response (AID 489026); assay type: functional, cell-based;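 note: cells exposed to compound about 14 hours before the viability readout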
[12] = general cell-killing toxicity readout – plate reader, dry powder samples, cytotoxicity control for PAX8 inhibitor project, dose response (AID 743021); assay type: functional, cell-based
Nonstructural protein 1 = Nonstructural protein 1 (Influenza A virus, UniProt Q194T2); assay type: functional, Influenza A virus (A/California/07/2009(H1N1))
Chain of Nonstructural protein 1 (Q194T2 whole entry): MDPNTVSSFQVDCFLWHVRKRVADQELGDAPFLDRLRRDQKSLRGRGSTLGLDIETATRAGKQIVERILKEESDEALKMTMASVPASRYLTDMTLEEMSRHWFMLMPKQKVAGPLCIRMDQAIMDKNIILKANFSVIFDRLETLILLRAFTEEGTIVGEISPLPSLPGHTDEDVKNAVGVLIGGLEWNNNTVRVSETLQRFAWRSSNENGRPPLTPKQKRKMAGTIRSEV

Beta-galactosidase = Beta-galactosidase (Escherichia coli, UniProt Q8VNN2); assay: detection-enzyme interference by beta-gal modulators – biochemical, E. coli enzyme, set 3, artefact control for CCR6 antagonist project, dose response (AID 504712); assay type: functional
Chain of Beta-galactosidase (Q8VNN2 whole entry): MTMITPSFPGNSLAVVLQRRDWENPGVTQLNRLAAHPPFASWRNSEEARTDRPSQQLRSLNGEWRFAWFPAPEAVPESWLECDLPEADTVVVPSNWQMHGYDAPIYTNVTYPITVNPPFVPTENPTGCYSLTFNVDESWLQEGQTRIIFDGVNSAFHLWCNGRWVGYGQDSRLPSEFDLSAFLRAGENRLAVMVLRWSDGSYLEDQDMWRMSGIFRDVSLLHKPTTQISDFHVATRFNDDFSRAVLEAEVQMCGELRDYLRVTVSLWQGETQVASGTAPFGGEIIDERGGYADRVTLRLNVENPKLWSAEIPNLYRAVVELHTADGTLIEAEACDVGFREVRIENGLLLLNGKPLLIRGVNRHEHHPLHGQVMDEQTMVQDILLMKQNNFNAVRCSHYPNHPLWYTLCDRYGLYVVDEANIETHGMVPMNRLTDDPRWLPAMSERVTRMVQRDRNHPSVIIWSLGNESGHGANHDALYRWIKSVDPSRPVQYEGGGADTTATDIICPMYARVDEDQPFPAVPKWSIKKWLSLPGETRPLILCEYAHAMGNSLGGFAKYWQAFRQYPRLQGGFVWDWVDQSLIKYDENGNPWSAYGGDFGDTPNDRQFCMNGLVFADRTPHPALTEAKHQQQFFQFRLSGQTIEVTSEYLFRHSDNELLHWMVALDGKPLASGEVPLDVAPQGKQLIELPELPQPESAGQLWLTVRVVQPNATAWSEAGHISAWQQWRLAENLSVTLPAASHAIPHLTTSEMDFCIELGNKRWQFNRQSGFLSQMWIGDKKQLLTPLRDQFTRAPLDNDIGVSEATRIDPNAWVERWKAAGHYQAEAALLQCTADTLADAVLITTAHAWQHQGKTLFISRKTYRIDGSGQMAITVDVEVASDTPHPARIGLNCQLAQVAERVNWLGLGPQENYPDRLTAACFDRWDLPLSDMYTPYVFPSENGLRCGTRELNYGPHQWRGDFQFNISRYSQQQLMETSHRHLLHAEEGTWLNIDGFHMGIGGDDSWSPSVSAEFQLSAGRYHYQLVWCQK

Paired box protein Pax-8 = Paired box protein Pax-8 (Homo sapiens, UniProt Q06710); assay: PAX8 transcriptional activity inhibition in RMG-I – RMG-I cells, luciferase, cherry-pick, dose response (AID 687027); assay type: functional, cell-based;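 note: luciferase reporter driven by Pax8 target thyroperoxidase promoter measured by SteadyGlo luminescence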
Chain of Paired box protein Pax-8 (Q06710 whole entry): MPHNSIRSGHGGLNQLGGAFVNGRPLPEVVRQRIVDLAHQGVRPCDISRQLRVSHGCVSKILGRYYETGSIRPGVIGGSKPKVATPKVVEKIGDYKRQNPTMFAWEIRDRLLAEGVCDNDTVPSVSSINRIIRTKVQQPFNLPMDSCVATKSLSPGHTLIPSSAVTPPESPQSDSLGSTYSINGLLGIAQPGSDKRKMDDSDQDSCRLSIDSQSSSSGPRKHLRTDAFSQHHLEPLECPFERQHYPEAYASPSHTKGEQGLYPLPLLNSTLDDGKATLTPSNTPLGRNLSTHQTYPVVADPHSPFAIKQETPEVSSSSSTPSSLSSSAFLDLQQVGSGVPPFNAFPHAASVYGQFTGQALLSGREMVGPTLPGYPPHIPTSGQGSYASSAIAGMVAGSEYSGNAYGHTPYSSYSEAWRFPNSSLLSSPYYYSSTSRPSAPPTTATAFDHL

[13] = Luminescence-based dose response cell-based high throughput screening assay for cytotoxic compounds using the IEC-6 intestinal epithelial cell line. [Related pubchem assays: 1858 (Summary AID.), 1825 (Counterscreen.), 1907 (Confirmation screen.)]; assay type: functional
[14] = viability loss in HeLa cells – cytotoxicity control for MgcRacGAP inhibitor project, dose response (AID 624300); assay type: functional

For `COc1ccc(/C=N/Nc2cc(N3CCCC3)nc(N3CCCC3)n2)cc1`, the EC50 [1] was 8.97 µM (active) and the EC50 [2] was 1.71 µM (active).

With `Cc1cccc(C)c1-n1cccc1/C=C1\SC(=S)N(c2cccc(C(=O)O)c2)C1=O` the EC50 (Streptococcus) was 8.78 µM (active), the EC50 (Melanocortin receptor 4) was > 89.2 µM (inactive) and the EC50 [3] was 2.07 µM (active).

With `Oc1ccc(/C=N/Nc2cc(N3CCCC3)nc(N3CCCC3)n2)cc1` the IC50 [4] was 34.4 µM (inactive), the IC50 [5] was 18.1 µM (active) and the IC50 [6] was > 66 µM (inactive). For the same compound, the IC50 [7] was 2.75 µM (active), the IC50 [8] was > 67 µM (not active) and the IC50 [9] was 10.9 µM (not active). The IC50 (Protein Rev) was 1.36 µM (active).

In the case of `COc1ccc(S(=O)(=O)/N=C2\C=C(Nc3ccc(O)cc3)C(=O)c3ccccc32)cc1`, the IC50 [10] is reported as 197 µM (inactive), the AC50 (INS1) is reported as 0.592 µM (active) and the EC50 (BJ) is reported as 3.21 µM (inconclusive). The IC50 [11] was 4.19 µM (active), the AC50 [12] was 7.4 µM (active) and the IC50 (Nonstructural protein 1) was 8.09 µM (active). For the same compound, the IC50 (Beta-galactosidase) was 43 µM (inactive), the AC50 (Paired box protein Pax-8) was 1.86 µM (active) and the IC50 [13] was 0.586 µM (active). The CC50 [14] was 2.15 µM (active).
